Test system: Concord grape vines
Assay: Bud break and shoot growth of potted dormant Concord grape vines in the greenhouse (Example 1)
Format: in vivo
Details: for % bud break (vines with at least one bud break): hydrogen cyanamide 10,000 ppm, 17-0-0 197,100 ppm, 15-0-0 239,060 ppm, ACC 1,000 ppm; for % bud break (vines with at least one bud break) / 50% Bud Break to Harvest / Initial to 50% Bud Break / 25% Bud Break (DAT) / 50% Bud Break (DAT): thidiazuron 300 ppm unless label states other; for Dry Weight (g)/25% Bud Break to Harvest (d): combined shoot dry weight at 49 DAT normalised by days from 25% bud break to harvest; for Dry Weight (g)/50% Bud Break to Harvest (d): combined shoot dry weight at 49 DAT normalised by days from 50% bud break to harvest; for Fresh Weight (g)/50% Bud Break to Harvest (d): combined shoot fresh weight at 49 DAT normalised by days from 50% bud break to harvest; for 50% Bud Break to Harvest: harvest at day 49; for Initial to 50% Bud Break: synchrony of bud break; for 25% Bud Break (DAT): time to 25% bud break; for 50% Bud Break (DAT): time to 50% bud break
Excerpt: An aqueous 50% hydrogen cyanamide solution (Sigma-Aldrich, St. Louis, Mo. USA) was used as the source of hydrogen cyanamide. The commercial product, Dormex® contains 50% hydrogen cyanamide (w/v) in water.
Erger® was used as the source of 15-0-0 fertilizer. (Erger is a registered trademark of Valagro S.P.A., Italy and is available from Helena Chemical Company, Collierville, Tenn., USA). Erger® contains 15% total nitrogen as 3.1% ammoniacal nitrogen, 5.8% nitrate nitrogen and 6.1% urea nitrogen and 3.3% calcium derived from ammonium nitrate, calcium nitrate and urea. As used herein, the term “15-0-0 fertilizer” refers to the Erger® formulation above and all formulations described in International PCT application publication WO/2001/037653A2 by Valagro S.P.A., Italy, which is incorporated, herein, in its entirety.
CAN-17 was used as the source of 17-0-0 fertilizer. CAN-17 contains 17% total nitrogen as 4.6% ammonium nitrogen and […] nitrate nitrogen and 1.3% urea nitrogen and 8.8% calcium derived from ammonium nitrate and calcium nitrate. CAN-17 is available from J.R. Simplot Company (Boise, Id., USA).
To assess the ability of mixtures of the invention to promote and synchronize bud break these mixtures were applied to Concord grape vines and examined for bud break (initiation of growth) and subsequent shoot development. Specifically, 1 year old dormant bare rooted Concord grape vines were planted in pots containing Pro-Mix® BX potting soil (Pro-Mix is a registered trademark of and available from Premier Horticulture Ltd.) and pruned to 5 nodes on a single shoot. Aqueous solutions of thidiazuron, hydrogen cyanamide, 15-0-0 fertilizer, 17-0-0 fertilizer and 1-aminocyclopropane-1-carboxylic acid (“ACC”), and mixtures thereof were each applied individually or sequentially or co-applied to the first-year wood of separate Concord grape vines. Plants were grown in the greenhouse for 49 days and evaluated for percent of vines showing bud break, or relief from dormancy, periodically between 7 days and the conclusion of the experiment. […] At 49 days after treatment (DAT), the plants were sacrificed and measured for total number of flower clusters, total new shoot length, longest new shoot, combined new shoot fresh weight and combined new shoot dry weight. New shoot growth is the growth arising from the dormant buds not including the woody growth that was planted and gave rise to the new growth.
Synergy is calculated by the Abbott method: %Cexp=A+B−(AB/100), where % Cexp is the expected efficacy and in which A and B are the speed of bud break or shoot length or shoot weight given by the single active ingredients. If the ratio between the experimentally observed efficacy of the mixture Cobs and the expected efficacy of the mixture is greater than 1, synergistic interactions are present in the mixture” (Gisi, Synergistic Interaction of Fungicides in Mixtures, The American Phytopathological Society, 86:11, 1273-1279,1996).

[1] = 49 days post treatment, thidiazuron ppm as in label, other concentrations as in Table 1, listed as Thidiazuron (300)
[2] = 49 days post treatment, thidiazuron ppm as in label, other concentrations as in Table 1, listed as Thidiazuron (1000)
[3] = other concentrations as in Table 1, listed as Thidiazuron (1000)
[4] = other concentrations as in Table 1
[5] = other concentrations as in Table 1, listed as 1,000 ppm thidiazuron

For `O=C(Nc1ccccc1)Nc1cnns1` [Thidiazuron, 1-Phenyl-3-(1,2,3-thiadiazol-5-yl)urea], the “% bud break (vines with at least one bud break)” value (31 DAT) was 33.3%, the “% bud break (vines with at least one bud break)” value (31 DAT, listed as Thidiazuron (1,000 ppm)) was 100.0% and the “% bud break (vines with at least one bud break)” value (34 DAT) was 33.3%. For the same molecule, the “% bud break (vines with at least one bud break)” value (34 DAT, listed as Thidiazuron (1,000 ppm)) was 100.0%, the “% bud break (vines with at least one bud break)” value (36 DAT) was 44.4% and the “% bud break (vines with at least one bud break)” value (36 DAT, listed as Thidiazuron (1,000 ppm)) was 100.0%. The “% bud break (vines with at least one bud break)” value (38 DAT) was 55.6%, the “% bud break (vines with at least one bud break)” value (38 DAT, listed as Thidiazuron (1,000 ppm)) was 100.0% and the “% bud break (vines with at least one bud break)” value (41 DAT) was 55.6%. The “% bud break (vines with at least one bud break)” value (41 DAT, listed as Thidiazuron (1,000 ppm)) was 100.0%, the “% bud break (vines with at least one bud break)” value (43 DAT) was 66.7% and the “% bud break (vines with at least one bud break)” value (43 DAT, listed as Thidiazuron (1,000 ppm)) was 100.0%. For the same molecule, the “% bud break (vines with at least one bud break)” value (49 DAT) was 77.8%, the “% bud break (vines with at least one bud break)” value (49 DAT, listed as Thidiazuron (1,000 ppm)) was 100.0% and the “Total # of Flower Clusters” value (49 days post treatment, thidiazuron ppm as in label, other concentrations as in Table 1) was 0.1. The “Combined Shoot Dry Weight” value [1] was 1.5 g, the “Combined Shoot Fresh Weight” value [1] was 8.2 g and the “Longest Shoot Length” value [1] was 20.1 cm. The “Total Shoot Length” value [1] was 28.3 cm, the “Combined Shoot Dry Weight” value [2] was 6.9 g and the “Combined Shoot Fresh Weight” value [2] was 31.8 g. The “Longest Shoot Length” value [2] was 68.3 cm, the “Total Shoot Length” value [2] was 88.8 cm and the “Dry Weight (g)/25% Bud Break to Harvest (d)” value (listed as Thidiazuron (300)) was 0.06 g/day. The “Dry Weight (g)/25% Bud Break to Harvest (d)” value (listed as Thidiazuron (1000)) was 0.17 g/day, the “Dry Weight (g)/50% Bud Break to Harvest (d)” value (listed as Thidiazuron (300)) was 0.13 g/day and the “Dry Weight (g)/50% Bud Break to Harvest (d)” value (listed as Thidiazuron (1000)) was 0.18 g/day. For the same molecule, the “Fresh Weight (g)/50% Bud Break to Harvest (d)” value (listed as Thidiazuron (300)) was 0.68 g/day, the “Fresh Weight (g)/50% Bud Break to Harvest (d)” value (listed as Thidiazuron (1000)) was 0.84 g/day and the “50% Bud Break to Harvest” value (other concentrations as in Table 1, listed as Thidiazuron (300)) was 12 days. The “50% Bud Break to Harvest” value [3] was 38 days, the “50% Bud Break to Harvest” value (other concentrations as in Table 1, listed as thidiazuron) was 12 days and the “Initial to 50% Bud Break” value [4] was 21 days. The “Initial to 50% Bud Break” value [5] was 3 days, the “Initial to 50% Bud Break” value [3] was 3 days and the “25% Bud Break (DAT)” value [4] was 23 DAT. For the same molecule, the “25% Bud Break (DAT)” value [3] was 9 DAT, the “50% Bud Break (DAT)” value [4] was 37 DAT and the “50% Bud Break (DAT)” value [5] was 11 DAT. For the same molecule, the “50% Bud Break (DAT)” value [3] was 11 DAT.
